The text below walks through data of patent US20220249476A1, “MutL LOSS PREDICTS SENSITIVITY TO CDK4/6 INHIBITORS IN CANCER” (Baylor College of Medicine, priority 2018, published 2022).

The test system of one test is ER+ PDX lines (BCaPE). The conditions noted are these: four CENMP- PDX lines compared with three CENMP+ lines; p=0.02; cited from earlier work.
Another test relates to ZR-75 cells. Briefly: Growth assay (Alamar blue) in ZR-75 cells with knockdown of DDR genes. The conditions noted are these: siCETN2, siNEIL2 and siERCC1 ZR-75 cells (transient siRNA) vs siScr; media containing full serum. The test is classed as cell-based, human. As to the method: ZR75.1 and MCF7 parental cells were from ATCC, 2015 and 2017 respectively, and tested for mycoplasma contamination upon arrival using the Lonza Mycoalert Plus Kit (CAT# LT07-710) as per the manufacturer's instructions, and annually since. Both lines were maintained in RPMI 1640 1X w/ L-glutamine and 1% Penicillin/Streptomycin (Sigma-Aldrich, CAT#P4333—100 mL). Cell lines used for experiments were <20 passages. Transient transfections with esiRNA (Sigma-Aldrich) towards human NEIL2 (CAT#EHU158461), CETN2 (CAT#EHU137031), ERCC1 (CAT#EHU156971), RAD23B (CAT#EHU145881) and POLM (CAT#SASI_Hs02_003344553), or scrambled control used at 50 nmoles/L each were delivered using Polypluys jetPRIME® transfection reagent (CAT#114-07) as per the manufacturer's instructions. Cells were plated for experiments 48 hrs after transfection. Stable selection with puromycin after infection with lentivirus harboring RNAi oligos (ABM) against human NEIL2 (CAT#i014980a), CETN2 (CAT#i004479a), and ERCC1 (CAT#i007023a) or scrambled control (CAT#i000238c) was conducted using manufacturer's protocol. Growth assays were repeated independently in triplicate as previously reported (50) using Alamar blue to detect cell viability. Final readings were between 4-6 days after initial drug treatment and fold change plotted for analysis. […]
(Resazurin is reduced to fluorescent resorufin, in cell work by metabolically active cells.)

Test [1] relates to MCF7 cells. In words: FACS analysis for PCNA in MCF7 cells after fulvestrant treatment. The test is classed as cell-based, human. The following applies: MCF7 cells with stable knockdown of CETN2, NEIL2, ERCC1 and MLH1 relative to control cells; 100 nM fulvestrant. The procedure:
(§1) FIGS. 17A-17E. Dysregulation of CETN2, NEIL2 and ERCC1 expression in ER+ breast cancer cells alters regulation of G1/S transition of the cell cycle. FIG. 17A & FIG. 17D) Histograms representing percentage of siScr, siCETN2, siNEIL2, siERCC1 and siMLH1 MCF7 cells that are Ki67 (FIG. 17A) and PCNA (FIG. 17D) positive after 48 hours of treatment with 100 nM of fulvestrant. Columns represent the mean and error bars the standard deviation. Student's t-test determined p-values. FIG. 17B-FIG. 17C) Boxplots indicating levels of CDK4 mRNA and PCNA protein level in CETN2, ERCC1, NEIL2, PRKDC proficient (CEN+PRKDCwt) and deficient (CEN-PRKDCmut) ER+ breast tumors based on values from microarray and RPPA data from TCGA. Wilcoxon Rank Sum test determined p-values. FIG. 17E) Histograms depicting percent growth inhibition in fulvestrant and abemaciclib (CDK4/6i)-treated MCF7 cells stably selected for RNAi-mediated knockdown of control, CETN2, ERCC1 or NEIL2, relative to vehicle treated cells. […] Student's t-test determined p-values.
(§2) RNA from cell lines was extracted using the Qiagen RNeasy Mini Kit (CAT#74106) and converted to cDNA using Bio-Rad Reverse Transcriptase iScript (CAT#TX1708891BAY), both following manufacturers' instructions. cDNA was quantified by qPCR using Bio-Rad SsoAdvanced Universal SYBR Green supermix (CAT#17525272) at the manufacturers specifications. […]

The subject of test [2] is MCF7 cells. In words: Growth assay (Alamar blue) in MCF7 cells with knockdown of DDR genes. The test is classed as cell-based, human. The conditions noted are these: for sensitivity (growth inhibition relative to vehicle treated cells): 100 nM fulvestrant, 1 μM Palbociclib. The procedure:
ZR75.1 and MCF7 parental cells were from ATCC, 2015 and 2017 respectively, and tested for mycoplasma contamination upon arrival using the Lonza Mycoalert Plus Kit (CAT# LT07-710) as per the manufacturer's instructions, and annually since. Both lines were maintained in RPMI 1640 1X w/ L-glutamine and 1% Penicillin/Streptomycin (Sigma-Aldrich, CAT#P4333—100 mL). Cell lines used for experiments were <20 passages. Transient transfections with esiRNA (Sigma-Aldrich) towards human NEIL2 (CAT#EHU158461), CETN2 (CAT#EHU137031), ERCC1 (CAT#EHU156971), RAD23B (CAT#EHU145881) and POLM (CAT#SASI_Hs02_003344553), or scrambled control used at 50 nmoles/L each were delivered using Polypluys jetPRIME® transfection reagent (CAT#114-07) as per the manufacturer's instructions. Cells were plated for experiments 48 hrs after transfection. Stable selection with puromycin after infection with lentivirus harboring RNAi oligos (ABM) against human NEIL2 (CAT#i014980a), CETN2 (CAT#i004479a), and ERCC1 (CAT#i007023a) or scrambled control (CAT#i000238c) was conducted using manufacturer's protocol. Growth assays were repeated independently in triplicate as previously reported (50) using Alamar blue to detect cell viability. Final readings were between 4-6 days after initial drug treatment and fold change plotted for analysis. Fulvestrant(Fisher Scientific CAT#506242), 4-OHT(Sigma-Aldrich CAT#H7904), Palbociclib (ThermoFisher CAT#508548) and Abemaciclib (ThermoFisher CAT#NC0577560), dissolved in DMSO, and β-estradiol (Sigma-Aldrich CAT#E2758-1G), dissolved in water, at 10 mmoles/L were stored long term at −80 C with working stocks at −20 C. Cells were treated 24 hours after plating with fresh drug added every 48 hrs until the end of the experiment. Estradiol addition experiments were conducted in phenol red-free DMEM with 10% charcoal stripped serum.

Test [3] relates to MCF7 cells. In words: Ki67 immunofluorescence in MCF7 cells before and after fulvestrant treatment. The class given is cell-based, human. The conditions noted are these: siCETN2, siNEIL2, siERCC1 MCF7 cells vs siScr control; 100 nM fulvestrant, 48 hours. The procedure:
as §1, §2

With `CC(C)(C#N)c1cc(Cn2cncn2)cc(C(C)(C)C#N)c1` [anastrozole], the “tumor viability after treatment (AUC)” value in the test with ER+ PDX lines (BCaPE) is on record as “significantly higher tumor viability”.

In the case of `C[C@]12CC[C@@H]3c4ccc(O)cc4C[C@@H](CCCCCCCCC[S+]([O-])CCCC(F)(F)C(F)(F)F)[C@H]3[C@@H]1CC[C@@H]2O` (stereo partly drawn) [fulvestrant, Fulvestrant], the “growth inhibition in response to treatment” value is listed as “significant lack of growth inhibition” with ZR-75 cells; “significant lack of growth inhibition” in the test on MCF7 cells [2] (siCETN2, siNEIL2 and siERCC1 MCF7 cells (transient siRNA) vs siScr, media containing full serum). Besides, the “PCNA positivity after treatment” value with MCF7 cells [1] is given as “Increased PCNA positivity”. Besides, in the test with MCF7 cells [2] (MCF7 cells stably selected with lentiviral RNAi against CETN2, NEIL2, ERCC1), the “growth phenotype under treatment” value is “Fulvestrant-independent”. Further, the “growth response to treatment” value in the test with MCF7 cells [2] (MCF7 cells with siRNA knockdown of negative control genes RAD23B and POLM) is given as “did not alter growth response”. Moreover, the “sensitivity (growth inhibition relative to vehicle treated cells)” value with MCF7 cells [2] (MCF7 cells with stable knockdown of CETN2, NEIL2 or ERCC1) is listed as “resistance”; with MCF7 cells [2] (control MCF7 cells (scrambled RNAi)) it was “comparable sensitivity”. For the same molecule, the “Ki67 inhibition in response to treatment” value with MCF7 cells [3] is given as “profound lack of Ki67 inhibition”.
